Data from the kinase profiling compilation of Christmann-Franck et al. (2016).

What was measured:
Assay in all cases: KINOMEscan competition binding
Conditions in all cases: compound 10.0 µM
[1] = target: PRKG2 (human) (UniProt Q13237)
[2] = target: PKN1 (human) (UniProt Q16512)
[3] = target: CDK17 (human) (UniProt Q00537)
[4] = target: GAK (human) (UniProt O14976)
[5] = target: RPS6KA6 KD1 (human) (UniProt Q9UK32)
[6] = target: PKN2 (human) (UniProt Q16513)
[7] = tested on: EIF2AK4 KD2 (human), Q9P2K8 [S808G]
[8] = target: MLTK (human) (UniProt Q9NYL2)
[9] = target: STK24 (human) (UniProt Q9Y6E0)
[10] = target: PRKAA2 (human) (UniProt P54646)
[11] = target: STK16 (human) (UniProt O75716)
[12] = target: TNK1 (human) (UniProt Q13470)
[13] = target: MAPK10 (human) (UniProt P53779)
[14] = target: PRKCE (human) (UniProt Q02156)
[15] = target: FGFR3 (human) (UniProt P22607)
[16] = target: CDK3 (human) (UniProt Q00526)
[17] = target: TYK2 JH1 catalytic (human) (UniProt P29597)
[18] = target: STK4 (human) (UniProt Q13043)
[19] = target: FGR (human) (UniProt P09769)
[20] = tested on: ABL1 (human), P00519 [M351T]
[21] = target: PIP5K1A (human) (UniProt Q99755)
[22] = target: CDC42BPG (human) (UniProt Q6DT37)
[23] = target: MYO3B (human) (UniProt Q8WXR4)
[24] = target: EPHA8 (human) (UniProt P29322)
[25] = target: CDK8 (human) (UniProt P49336)
[26] = target: NEK5 (human) (UniProt Q6P3R8)
[27] = target: STK38L (human) (UniProt Q9Y2H1)
[28] = target: CDK11B (human) (UniProt P21127)
[29] = target: LIMK1 (human) (UniProt P53667)
[30] = target: DCLK3 (human) (UniProt Q9C098)
[31] = target: RPS6KA4 KD2 (human) (UniProt O75676)
[32] = target: PTK2B (human) (UniProt Q14289)
[33] = target: FGFR2 (human) (UniProt P21802)
[34] = target: CAMKK1 (human) (UniProt Q8N5S9)
[35] = target: EPHA1 (human) (UniProt P21709)
[36] = tested on: KIT (human), P10721 [D816V]
[37] = target: NTRK3 (human) (UniProt Q16288)
[38] = target: MAP4K4 (human) (UniProt O95819)
[39] = target: MAP4K2 (human) (UniProt Q12851)
[40] = target: STK10 (human) (UniProt O94804)

NEK5 (human), sequence (Q6P3R8 whole entry, looked up): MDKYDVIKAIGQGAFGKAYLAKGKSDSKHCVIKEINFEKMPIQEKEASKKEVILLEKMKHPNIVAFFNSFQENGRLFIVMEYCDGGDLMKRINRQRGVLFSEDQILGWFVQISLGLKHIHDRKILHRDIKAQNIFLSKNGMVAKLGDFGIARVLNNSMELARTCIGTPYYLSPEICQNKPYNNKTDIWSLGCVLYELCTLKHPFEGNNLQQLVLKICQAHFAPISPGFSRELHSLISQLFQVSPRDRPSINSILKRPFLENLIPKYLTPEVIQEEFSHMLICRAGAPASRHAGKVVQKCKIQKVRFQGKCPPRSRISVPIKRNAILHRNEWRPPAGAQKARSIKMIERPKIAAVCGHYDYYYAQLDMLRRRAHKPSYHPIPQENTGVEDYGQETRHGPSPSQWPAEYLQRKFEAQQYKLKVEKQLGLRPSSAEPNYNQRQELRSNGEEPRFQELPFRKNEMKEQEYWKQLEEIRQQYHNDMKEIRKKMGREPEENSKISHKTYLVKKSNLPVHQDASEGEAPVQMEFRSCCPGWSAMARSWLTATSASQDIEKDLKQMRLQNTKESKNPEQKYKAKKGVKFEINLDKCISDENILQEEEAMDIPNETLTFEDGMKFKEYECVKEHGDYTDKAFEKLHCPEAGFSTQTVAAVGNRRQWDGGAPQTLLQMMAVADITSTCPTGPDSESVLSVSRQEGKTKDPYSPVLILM
FGR (human), sequence (P09769 whole entry, looked up): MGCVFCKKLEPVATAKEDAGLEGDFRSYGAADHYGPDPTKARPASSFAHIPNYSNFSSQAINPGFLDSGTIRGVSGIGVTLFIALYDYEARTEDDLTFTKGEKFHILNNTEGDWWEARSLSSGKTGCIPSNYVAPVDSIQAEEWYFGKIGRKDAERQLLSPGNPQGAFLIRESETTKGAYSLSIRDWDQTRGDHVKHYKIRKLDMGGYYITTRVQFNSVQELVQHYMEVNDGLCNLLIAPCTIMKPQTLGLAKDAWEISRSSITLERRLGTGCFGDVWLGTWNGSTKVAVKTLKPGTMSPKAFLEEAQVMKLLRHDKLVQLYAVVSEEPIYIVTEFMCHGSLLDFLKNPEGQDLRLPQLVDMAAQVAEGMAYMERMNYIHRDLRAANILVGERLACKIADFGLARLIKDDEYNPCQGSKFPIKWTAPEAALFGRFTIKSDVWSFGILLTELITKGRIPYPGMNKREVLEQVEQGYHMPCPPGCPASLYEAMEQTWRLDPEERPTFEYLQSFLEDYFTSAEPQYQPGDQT
CDK17 (human), sequence (Q00537 whole entry, looked up): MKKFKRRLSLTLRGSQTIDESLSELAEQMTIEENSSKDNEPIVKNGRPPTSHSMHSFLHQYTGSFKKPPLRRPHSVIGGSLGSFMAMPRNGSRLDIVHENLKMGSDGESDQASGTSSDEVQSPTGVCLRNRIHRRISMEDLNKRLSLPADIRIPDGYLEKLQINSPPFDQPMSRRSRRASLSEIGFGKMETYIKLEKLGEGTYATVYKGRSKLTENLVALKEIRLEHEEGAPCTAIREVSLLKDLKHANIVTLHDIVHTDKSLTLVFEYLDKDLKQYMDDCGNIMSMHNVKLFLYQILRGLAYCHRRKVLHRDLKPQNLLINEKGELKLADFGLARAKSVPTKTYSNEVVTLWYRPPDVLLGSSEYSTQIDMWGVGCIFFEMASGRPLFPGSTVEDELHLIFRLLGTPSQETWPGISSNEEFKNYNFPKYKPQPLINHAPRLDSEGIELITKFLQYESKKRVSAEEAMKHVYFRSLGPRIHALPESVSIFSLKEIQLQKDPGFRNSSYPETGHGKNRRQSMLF
CDK3 (human), sequence (Q00526 whole entry, looked up): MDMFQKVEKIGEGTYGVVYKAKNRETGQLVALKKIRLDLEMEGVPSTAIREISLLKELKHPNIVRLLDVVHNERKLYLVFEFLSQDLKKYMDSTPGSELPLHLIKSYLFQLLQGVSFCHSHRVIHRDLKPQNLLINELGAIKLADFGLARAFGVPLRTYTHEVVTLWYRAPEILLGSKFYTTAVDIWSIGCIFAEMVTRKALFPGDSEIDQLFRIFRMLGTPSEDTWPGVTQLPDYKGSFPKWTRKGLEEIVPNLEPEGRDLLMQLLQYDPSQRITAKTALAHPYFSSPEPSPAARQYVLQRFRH
EIF2AK4 KD2 (human), Q9P2K8 [S808G], sequence (Q9P2K8 whole entry S808G, looked up): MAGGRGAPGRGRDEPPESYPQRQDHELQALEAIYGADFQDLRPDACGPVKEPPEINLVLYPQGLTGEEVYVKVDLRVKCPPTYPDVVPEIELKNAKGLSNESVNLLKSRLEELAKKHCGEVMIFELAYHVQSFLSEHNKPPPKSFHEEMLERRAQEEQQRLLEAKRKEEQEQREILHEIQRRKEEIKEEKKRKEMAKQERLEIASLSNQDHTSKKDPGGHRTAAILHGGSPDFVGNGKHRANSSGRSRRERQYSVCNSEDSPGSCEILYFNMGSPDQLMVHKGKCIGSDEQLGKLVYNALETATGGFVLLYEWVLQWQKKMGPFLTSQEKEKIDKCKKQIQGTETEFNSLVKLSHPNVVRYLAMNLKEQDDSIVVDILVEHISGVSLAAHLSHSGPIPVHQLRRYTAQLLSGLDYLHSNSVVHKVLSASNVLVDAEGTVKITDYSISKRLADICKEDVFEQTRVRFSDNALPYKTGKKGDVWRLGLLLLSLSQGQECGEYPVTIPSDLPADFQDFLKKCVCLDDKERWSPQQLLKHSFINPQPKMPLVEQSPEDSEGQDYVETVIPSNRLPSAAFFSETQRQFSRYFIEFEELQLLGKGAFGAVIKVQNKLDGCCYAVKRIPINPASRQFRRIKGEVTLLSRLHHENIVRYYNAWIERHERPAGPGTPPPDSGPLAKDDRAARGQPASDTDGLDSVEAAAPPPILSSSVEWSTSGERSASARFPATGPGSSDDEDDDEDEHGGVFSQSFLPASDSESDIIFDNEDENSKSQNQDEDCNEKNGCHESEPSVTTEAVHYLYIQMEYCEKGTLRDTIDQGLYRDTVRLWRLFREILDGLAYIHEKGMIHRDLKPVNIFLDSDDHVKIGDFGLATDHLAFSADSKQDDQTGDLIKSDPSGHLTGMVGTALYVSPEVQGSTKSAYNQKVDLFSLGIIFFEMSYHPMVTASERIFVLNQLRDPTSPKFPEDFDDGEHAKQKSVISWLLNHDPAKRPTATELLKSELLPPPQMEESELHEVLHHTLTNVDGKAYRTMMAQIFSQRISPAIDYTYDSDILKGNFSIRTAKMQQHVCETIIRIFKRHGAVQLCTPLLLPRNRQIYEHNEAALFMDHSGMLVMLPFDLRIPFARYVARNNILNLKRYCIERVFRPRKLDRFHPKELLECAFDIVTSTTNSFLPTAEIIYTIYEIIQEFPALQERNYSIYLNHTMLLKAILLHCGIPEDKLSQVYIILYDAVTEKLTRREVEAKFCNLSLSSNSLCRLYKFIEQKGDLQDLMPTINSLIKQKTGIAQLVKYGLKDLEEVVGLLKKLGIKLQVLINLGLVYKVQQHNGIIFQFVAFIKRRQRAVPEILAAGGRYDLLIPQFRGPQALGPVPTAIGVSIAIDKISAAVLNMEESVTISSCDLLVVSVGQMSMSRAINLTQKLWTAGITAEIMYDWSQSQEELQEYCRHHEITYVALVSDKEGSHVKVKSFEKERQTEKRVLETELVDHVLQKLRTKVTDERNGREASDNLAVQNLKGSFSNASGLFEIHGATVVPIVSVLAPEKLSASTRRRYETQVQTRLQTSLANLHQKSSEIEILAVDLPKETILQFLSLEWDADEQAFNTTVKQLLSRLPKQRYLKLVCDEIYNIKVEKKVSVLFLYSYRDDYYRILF
LIMK1 (human), sequence (P53667 whole entry, looked up): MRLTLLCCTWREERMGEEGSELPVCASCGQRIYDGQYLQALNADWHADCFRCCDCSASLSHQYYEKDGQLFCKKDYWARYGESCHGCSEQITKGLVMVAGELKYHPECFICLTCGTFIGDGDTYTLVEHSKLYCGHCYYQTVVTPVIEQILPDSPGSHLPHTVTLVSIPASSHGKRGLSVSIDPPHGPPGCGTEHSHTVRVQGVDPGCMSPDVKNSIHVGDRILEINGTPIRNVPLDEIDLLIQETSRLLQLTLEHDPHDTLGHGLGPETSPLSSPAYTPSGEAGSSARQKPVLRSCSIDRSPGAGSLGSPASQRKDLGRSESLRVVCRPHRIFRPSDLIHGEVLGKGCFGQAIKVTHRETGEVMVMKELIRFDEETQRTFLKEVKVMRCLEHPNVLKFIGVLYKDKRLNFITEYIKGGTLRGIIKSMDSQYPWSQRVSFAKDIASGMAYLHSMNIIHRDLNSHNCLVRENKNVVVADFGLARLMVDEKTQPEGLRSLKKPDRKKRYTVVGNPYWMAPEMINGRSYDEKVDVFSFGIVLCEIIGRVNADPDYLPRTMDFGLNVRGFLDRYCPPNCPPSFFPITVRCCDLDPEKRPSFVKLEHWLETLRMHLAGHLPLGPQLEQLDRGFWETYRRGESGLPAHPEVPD
MAPK10 (human), sequence (P53779 whole entry, looked up): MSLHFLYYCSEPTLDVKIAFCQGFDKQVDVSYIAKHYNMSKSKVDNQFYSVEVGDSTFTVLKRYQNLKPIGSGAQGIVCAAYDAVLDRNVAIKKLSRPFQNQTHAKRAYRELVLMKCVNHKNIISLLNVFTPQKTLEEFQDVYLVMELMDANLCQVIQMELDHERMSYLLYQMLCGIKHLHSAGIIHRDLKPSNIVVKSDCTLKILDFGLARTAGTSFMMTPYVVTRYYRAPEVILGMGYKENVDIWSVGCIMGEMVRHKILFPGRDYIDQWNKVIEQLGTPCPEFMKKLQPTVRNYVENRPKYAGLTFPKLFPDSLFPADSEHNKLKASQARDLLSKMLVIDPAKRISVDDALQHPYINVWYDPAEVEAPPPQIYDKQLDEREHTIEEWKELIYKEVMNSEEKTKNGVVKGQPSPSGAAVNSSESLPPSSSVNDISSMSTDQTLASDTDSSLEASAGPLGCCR

Row | Compound | kinase still bound, per cent of control [1] | kinase still bound, per cent of control [2] | kinase still bound, per cent of control [3] | kinase still bound, per cent of control [4] | kinase still bound, per cent of control [5] | kinase still bound, per cent of control [6] | kinase still bound, per cent of control [7] | kinase still bound, per cent of control [8] | kinase still bound, per cent of control [9] | kinase still bound, per cent of control [10] | kinase still bound, per cent of control [11] | kinase still bound, per cent of control [12] | kinase still bound, per cent of control [13] | kinase still bound, per cent of control [14] | kinase still bound, per cent of control [15] | kinase still bound, per cent of control [16] | kinase still bound, per cent of control [17] | kinase still bound, per cent of control [18] | kinase still bound, per cent of control [19] | kinase still bound, per cent of control [20] | further results
1 | Cc1ccc(C(=O)Nc2cccc(C(F)(F)F)c2)cc1Nc1cncc(C(N)=O)c1 | 100% | 100% | 100% | 100% | 100% | 100% | 100% | 6.9% | 100% | 100% | 100% | 100% | 100% | 100% | 100% | 100% | 100% | 100% | 100% | 27% | kinase still bound, per cent of control [21]: 100%; kinase still bound, per cent of control [22]: 100%; kinase still bound, per cent of control [23]: 100%; kinase still bound, per cent of control [24]: 0.35%; kinase still bound, per cent of control [25]: 100%; kinase still bound, per cent of control [26]: 100%; kinase still bound, per cent of control [27]: 100%; kinase still bound, per cent of control [28]: 100%; kinase still bound, per cent of control [29]: 100%; kinase still bound, per cent of control [30]: 100%; kinase still bound, per cent of control [31]: 100%; kinase still bound, per cent of control [32]: 100%; kinase still bound, per cent of control [33]: 100%; kinase still bound, per cent of control [34]: 100%; kinase still bound, per cent of control [35]: 100%; kinase still bound, per cent of control [36]: 100%; kinase still bound, per cent of control [37]: 15%; kinase still bound, per cent of control [38]: 100%; kinase still bound, per cent of control [39]: 100%; kinase still bound, per cent of control [40]: 100%
2 | COc1cc(N2CCN(C)CC2)ccc1Nc1nc(N)c(C(=O)c2c(Cl)cccc2Cl)s1 | 74% | 100% | 42% | 73% | 79% | 98% | 100% | 100% | 77% | 68% | 90% | 100% | 100% | 68% | 99% | 97% | 90% | 100% | 93% | 84% | kinase still bound, per cent of control [21]: 88%; kinase still bound, per cent of control [22]: 100%; kinase still bound, per cent of control [23]: 94%; kinase still bound, per cent of control [24]: 73%; kinase still bound, per cent of control [25]: 100%; kinase still bound, per cent of control [26]: 96%; kinase still bound, per cent of control [27]: 84%; kinase still bound, per cent of control [28]: 5.3%; kinase still bound, per cent of control [29]: 74%; kinase still bound, per cent of control [30]: 14%; kinase still bound, per cent of control [31]: 100%; kinase still bound, per cent of control [32]: 42%; kinase still bound, per cent of control [33]: 91%; kinase still bound, per cent of control [34]: 6.3%; kinase still bound, per cent of control [35]: 100%; kinase still bound, per cent of control [36]: 92%; kinase still bound, per cent of control [37]: 100%; kinase still bound, per cent of control [38]: 76%; kinase still bound, per cent of control [39]: 77%; kinase still bound, per cent of control [40]: 40%
3 | Cn1c(=O)n(-c2ccc(C(C)(C)C#N)cc2)c2c3cc(-c4cnc5ccccc5c4)ccc3ncc21 | 100% | 100% | 100% | 100% | 100% | 100% | 100% | 100% | 100% | 100% | 100% | 100% | 100% | 100% | 100% | 100% | 100% | 100% | 100% | 100% | kinase still bound, per cent of control [21]: 100%; kinase still bound, per cent of control [22]: 100%; kinase still bound, per cent of control [23]: 100%; kinase still bound, per cent of control [24]: 100%; kinase still bound, per cent of control [25]: 100%; kinase still bound, per cent of control [26]: 100%; kinase still bound, per cent of control [27]: 100%; kinase still bound, per cent of control [28]: 100%; kinase still bound, per cent of control [29]: 100%; kinase still bound, per cent of control [30]: 100%; kinase still bound, per cent of control [31]: 100%; kinase still bound, per cent of control [32]: 100%; kinase still bound, per cent of control [33]: 100%; kinase still bound, per cent of control [34]: 100%; kinase still bound, per cent of control [35]: 100%; kinase still bound, per cent of control [36]: 100%; kinase still bound, per cent of control [37]: 100%; kinase still bound, per cent of control [38]: 100%; kinase still bound, per cent of control [39]: 11%; kinase still bound, per cent of control [40]: 100%
